Experimental data as given in EP0361510B1, “Antitumor substance, process for preparing the same, and anticancer agent containing the same” (MEIJI SEIKA KAISHA LTD., priority 1988, dated 1990).
In brackets after ≈: the same amount, converted by molar mass. Read-outs that look alike come from different tables or passages of the source.

Columns and labels:
[1] = tested on: Mouse leukemia P-388 cells; test: Cytotoxicity on P-388 cells (MTT assay); type: cell-based; details: for IC50: Mus musculus, P388, 72 hours incubation, read-out: IC₅₀; for IC₅₀: 72 hours incubation
Experimental: Cytotoxicity of the compounds according to the present invention was determined by MTT assay in the following manner.
Mouse leukemia P-388 cells were suspended in RPMI medium supplemented with 10% fetal calf serum and this suspension was used to inoculate the 96-well microplate to give a cell concentration of 2 × 10³ cells/well. The compound shown in Table 2 was dissloved in RPMI medium and add to each well for the test group, while no compound was added to wells of the control group. Incubation was carried out at 37°C for 72 hours at 5% CO₂. Then, MTT (3-(4,5-dimethylthiazol-2-yl)-2,5-diphenyl tetrazolium bromide) was added to each well to cause formation of formazan. The resulting formazan was dissolved by adding sodium dodecyl sulfate. Absorbance at 577-630 nm of each well was measured by the ELISA analyzer and 50% ihibitory concentration (IC₅₀) of each compound was calculated from the absorbance ratio of the test group to the control group.

[2] = tested on: Mouse leukemia P-388 cells; test: Antitumor activity in mice transplanted intraperitoneally with P-388 cells; type: in vivo, BDF₁ mice; details: intraperitoneal, 24 hours after transplantation, hydrochloride
Experimental: Antitumor activity of hydrochlorides of the compounds of the present invention was determined in the following manner.
Mouse leukemia P-388 cells maintained in the abdominal cavity of BDF₁ mouse were taken out and were suspended in physiological saline to give a cell concnetration of 1 × 10⁶ cells/0.2 mℓ. The cell suspension (0.2 mℓ) was transplanted to the abdominal cavity of 5-week-old male BDF₁ mice. The compounds of the present invention as shown in Table 3 was dissolved in 0.2 mℓ of physiological saline and was intraperitoneally administered to the mouse 24 hours after the transplantation of P-388 cells. No compound was administered to the mice of the control group. The T/C% value was calculated in accordance with the following formula. [formula]

[3] = Acute toxicity (LD50) in mice; details: mouse, in vivo, hydrochloride, read-out: LD₅₀
Experimental: The hydrochlorides of the compounds of the present invention as shown in Table 4 were intraperitoneally or intravenously administered to mice and acute toxicity (LD₅₀) of each compound was measured.

[4] = mouse, i.v.; cited from earlier work

CCC(=O)Oc1c(C2CC(C)(N(C)C)C(OC(=O)CC)C(C)O2)ccc2c1C(=O)c1c(cc(C)c3c(=O)cc(C4(C)OC4C4OC4C)oc13)C2=O (centres unmarked) [Compound 4, 3′,11-O-dipropionyl SF2587]
IC50 [1]: 0.0181 µg/mL (≈ 0.0258 µM) | Anti-P388 Activity (T/C%) ([2]; Dose 1.56 mg/kg): 130% | Anti-P388 Activity (T/C%) ([2]; Dose 3.13 mg/kg): 133% | Anti-P388 Activity (T/C%) ([2]; Dose 6.25 mg/kg): 217% | Anti-P388 Activity (T/C%) ([2]; Dose 12.5 mg/kg): >449% | Anti-P388 Activity (T/C%) ([2]; Dose 25 mg/kg): 71% | LD50 ([3]; ip, injection route i.p.): 40 mg/kg

3′-O-Butyryl SF2587 [Compound 5]
IC₅₀ [1]: 17.8 ng/mL | Anti-P388 Activity (T/C%) ([2]; Dose 1.25 mg/kg): 158% | Anti-P388 Activity (T/C%) ([2]; Dose 2.5 mg/kg): 186% | Anti-P388 Activity (T/C%) ([2]; Dose 5 mg/kg): 72%

CCCC(=O)Oc1c(C2CC(C)(N(C)C)C(OC(=O)CCC)C(C)O2)ccc2c1C(=O)c1c(cc(C)c3c(=O)cc(C4(C)OC4C4OC4C)oc13)C2=O (centres unmarked) [Compound 6, 3′-11-O-dibutyryl SF2587]
IC50 [1]: 0.0231 µg/mL (≈ 0.0317 µM) | Anti-P388 Activity (T/C%) ([2]; Dose 1.25 mg/kg): 96% | Anti-P388 Activity (T/C%) ([2]; Dose 2.5 mg/kg): 113% | Anti-P388 Activity (T/C%) ([2]; Dose 5 mg/kg): 144% | Anti-P388 Activity (T/C%) ([2]; Dose 10 mg/kg): 186% | Anti-P388 Activity (T/C%) ([2]; Dose 20 mg/kg): >485% | LD50 ([3]; ip, injection route i.p.): 120 mg/kg

3′-O-isobutyryl SF2587 [Compound 7]
IC₅₀ [1]: 55.2 ng/mL

3′-O-propionyl SF2587 [Compound 3]
IC₅₀ [1]: 19.9 ng/mL

3′,11-O-divaleryl SF2587 [Compound 9]
IC₅₀ [1]: 34.3 ng/mL | Anti-P388 Activity (T/C%) ([2]; Dose 2.5 mg/kg): 96% | Anti-P388 Activity (T/C%) ([2]; Dose 5 mg/kg): 117% | Anti-P388 Activity (T/C%) ([2]; Dose 10 mg/kg): 147% | Anti-P388 Activity (T/C%) ([2]; Dose 20 mg/kg): 189% | Anti-P388 Activity (T/C%) ([2]; Dose 40 mg/kg): 227%

CC(=O)Oc1c(C2CC(C)(N(C)C)C(OC(C)=O)C(C)O2)ccc2c1C(=O)c1c(cc(C)c3c(=O)cc(C4(C)OC4C4OC4C)oc13)C2=O (centres unmarked) [Compound 2, 3′, 11-O-acetyl-SF2587]
IC50 [1]: 0.0231 µg/mL (≈ 0.0343 µM) | Anti-P388 Activity (T/C%) ([2]; Dose 3.5 mg/kg): 163% | Anti-P388 Activity (T/C%) ([2]; Dose 7 mg/kg): >200% | Anti-P388 Activity (T/C%) ([2]; Dose 14 mg/kg): 70% | LD50 ([3]; ip, injection route i.p.): 16 mg/kg | LD50 ([3]; iv, injection route i.v.): 23.5 mg/kg

11-O-Butyryl SF2587 [Compound 10]
IC₅₀ [1]: 16.0 ng/mL

3′-O-acetyl SF2587 Substance [Compound 1]
IC₅₀ [1]: 19.4 ng/mL | Anti-P388 Activity (T/C%) ([2]; Dose 0.25 mg/kg): 124% | Anti-P388 Activity (T/C%) ([2]; Dose 0.5 mg/kg): 134% | Anti-P388 Activity (T/C%) ([2]; Dose 1.0 mg/kg): 144%

3′,11-O-diisobutyryl SF2587 [Compound 8]
IC₅₀ [1]: 23.1 ng/mL | Anti-P388 Activity (T/C%) ([2]; Dose 2.5 mg/kg): 113% | Anti-P388 Activity (T/C%) ([2]; Dose 5 mg/kg): 144% | Anti-P388 Activity (T/C%) ([2]; Dose 10 mg/kg): 175% | Anti-P388 Activity (T/C%) ([2]; Dose 20 mg/kg): >488% | Anti-P388 Activity (T/C%) ([2]; Dose 40 mg/kg): 69%

Cc1cc2c(c3oc(C4(C)OC4C4OC4C)cc(=O)c13)C(=O)c1c(ccc(C3CC(C)(N(C)C)C(O)C(C)O3)c1O)C2=O (centres unmarked) [SF2587]
LD₅₀ [4]: about 5 mg/kg
